Test results taken from article PMC9025810, “Interaction of Antifungal Drugs with CYP3A- and OATP1B-Mediated Venetoclax Elimination” (Pharmaceutics, 2022).
Where two headings read alike, the source gives them in different places. *1 amine or outer side, *2 acyl side, *3 side chain or, on linkers, in order; H or OH if unused. Where a SMILES comes first, the peptide text is derived from it. Bridges are numbered along the chain shown (N, C = ends). [ ]: non-standard residue; d: D form. The star is where a group is joined. hTyr(3S-OH,4S-OH,3'-OSO3H) = N[C@H](C(=O)O)[C@H](O)[C@@H](O)c1ccc(O)c(OS(=O)(=O)O)c1; pTerphenylCO(4''-OnC5H11) = CCCCCOc1ccc(-c2ccc(-c3ccc(C(=O)*)cc3)cc2)cc1; Orn(4R-OH,5R-OH) = O=C([C@H](C[C@@H](O)[C@@H](O)N[*:3])N[*:1])[*:2]; hTyr(3S-OH,4S-OH) = N[C@H](C(=O)O)[C@H](O)[C@@H](O)c1ccc(O)cc1; Pro(3S-OH,4S-Me) = C[C@H]1CN[C@H](C(=O)O)[C@H]1O; X1 = CCCCCOc1ccc(-c2cc(-c3ccc(C(=O)*)cc3)no2)cc1; Gln(3R-OH) = NC(=O)C[C@@H](O)[C@H](N)C(=O)O; Hyp = O=C(O)[C@@H]1C[C@@H](O)CN1

Legend:
[1] = biological target: T1, OATP1B1 (Homo sapiens, UniProt Q9Y6L6); assay: Inhibition of OATP1B1-mediated [3H]EβG uptake in HEK293 cells; settings: for IC50: 0.2 µM EβG, 15 min pre-incubation + 15 min co-incubation; for OATP1B1 inhibitory potency compared with parent drug itraconazole: EβG uptake
T1 sequence (Q9Y6L6 1-691): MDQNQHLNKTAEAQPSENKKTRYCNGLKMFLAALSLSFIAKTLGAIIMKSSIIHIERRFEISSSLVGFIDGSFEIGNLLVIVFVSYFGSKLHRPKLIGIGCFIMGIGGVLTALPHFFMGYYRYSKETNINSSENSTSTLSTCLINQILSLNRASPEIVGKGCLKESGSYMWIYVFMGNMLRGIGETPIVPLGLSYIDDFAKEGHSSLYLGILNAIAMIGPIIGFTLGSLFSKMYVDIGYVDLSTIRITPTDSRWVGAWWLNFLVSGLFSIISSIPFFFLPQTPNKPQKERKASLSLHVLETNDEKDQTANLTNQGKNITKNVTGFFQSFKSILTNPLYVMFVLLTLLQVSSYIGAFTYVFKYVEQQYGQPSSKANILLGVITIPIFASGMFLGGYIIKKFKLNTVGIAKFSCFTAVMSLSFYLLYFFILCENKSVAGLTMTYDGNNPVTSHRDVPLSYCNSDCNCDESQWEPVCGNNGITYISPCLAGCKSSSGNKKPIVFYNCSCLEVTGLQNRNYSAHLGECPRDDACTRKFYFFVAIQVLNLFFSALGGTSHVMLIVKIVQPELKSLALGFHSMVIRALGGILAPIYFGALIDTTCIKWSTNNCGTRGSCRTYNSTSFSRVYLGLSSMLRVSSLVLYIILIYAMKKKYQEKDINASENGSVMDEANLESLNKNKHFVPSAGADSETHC
Method: (§1) In brief, radioactive uptake assays were performed utilizing HEK293 cell lines stably expressing OATP1B1 or OATP1B2, or cells expressing the respective vector control (VC) [17, 18]. […] Cells were cultured in Dulbecco’s Modified Eagle Medium (DMEM; Invitrogen) supplemented with 10% FBS; the media for cells expressing OATP1B1 or VC was supplemented with hygromycin B (25 mg/mL; Invitrogen), and blasticidin (37.5 mg/mL; Biovision).
(§2) For inhibition experiments, cells were seeded in 12- or 24-well plates in phenol red-free media and were incubated at 37 °C for 24 h; cells overexpressing OATP1B1 or VC were incubated with doxycycline (1 µg/mL) for 24 h. Cells were washed with warm PBS and pre-incubated with the indicated concentrations of each potential inhibitor (or an equal volume of vehicle) in phenol red-free DMEM (without FBS and supplements) at 37 °C for 15 min. […] The experiment was terminated by washing three times with ice-cold PBS. Cells were lysed with 1 N NaOH overnight at 4 °C, and the solution was neutralized with 2 M HCl. […] The OATP1B-mediated uptake was calculated by dividing the disintegrations per minute (dpm) from each replicate by the amount of protein (mg) and subtracting the dpm/mg protein in the VC cell line. The OATP1B1-mediated uptake at each concentration of each antifungal drug was then compared with the OATP1B1-mediated uptake when only an equal volume of vehicle (water or DMSO) was added without the antifungal drug.

[2] = biological target: T2, OATP1B2 (Mus musculus, UniProt Q9JJL3); assay: Inhibition of OATP1B2-mediated [3H]EβG uptake in HEK293 cells
T2 sequence (Q9JJL3 1-689): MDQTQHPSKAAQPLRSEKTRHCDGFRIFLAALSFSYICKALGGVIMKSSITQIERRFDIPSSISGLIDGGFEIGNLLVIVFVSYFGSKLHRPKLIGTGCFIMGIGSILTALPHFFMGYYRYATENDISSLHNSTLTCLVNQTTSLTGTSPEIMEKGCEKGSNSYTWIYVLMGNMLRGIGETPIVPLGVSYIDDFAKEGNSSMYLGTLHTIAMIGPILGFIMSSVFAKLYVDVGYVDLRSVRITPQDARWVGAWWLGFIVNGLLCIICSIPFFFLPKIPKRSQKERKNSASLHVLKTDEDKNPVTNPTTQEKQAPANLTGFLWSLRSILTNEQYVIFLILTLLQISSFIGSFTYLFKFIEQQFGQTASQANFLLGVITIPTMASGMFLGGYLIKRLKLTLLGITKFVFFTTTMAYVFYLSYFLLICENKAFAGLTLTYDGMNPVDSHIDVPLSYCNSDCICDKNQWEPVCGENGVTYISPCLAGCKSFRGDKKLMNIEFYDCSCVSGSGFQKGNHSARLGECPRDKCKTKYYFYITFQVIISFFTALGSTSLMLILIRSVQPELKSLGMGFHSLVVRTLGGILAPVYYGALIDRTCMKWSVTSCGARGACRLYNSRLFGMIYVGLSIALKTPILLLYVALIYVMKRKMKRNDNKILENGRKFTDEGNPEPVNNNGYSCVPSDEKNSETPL
Method: as §1, §2

[3] = biological target: T1, OATP1B1; assay: In vitro to in vivo extrapolation (FDA basic models: Cmax,ss/IC50 and R value); settings: FDA 2020 guidance Equation (2), >1.1 indicates potential to inhibit in vivo
Text: In brief, we utilized the equation Cmax,ss/IC50. To use this equation, we identified the mean total peak concentration at the steady-state of each potential inhibitor (Cmax,ss) from the published literature on the clinical pharmacokinetics of each agent (Supplementary Table S2). We then divided Cmax,ss by the IC50 of the respective agents. (1) CMax,ss/IC50
As indicated by the FDA guidelines, values of >0.1 indicate the potential for a clinically relevant interaction.
To utilize this equation, we used the previously determined Cmax,ss (Supplementary Table S2). Where necessary, the molar weight was used to convert the dose or Cmax,ss to µM. We determined the unbound fraction in plasma (fup) for each drug from publicly available literature. […] As recommended by the FDA guidelines, the fraction absorbed (Fa) and intestinal availability (Fg) were set to 1, fup was set to 1% when reported to be less than 1%, and the absorption constant (ka) was set to 0.1 min^−1 (as a worst-case estimate).

[4] = biological target: T1, OATP1B1; assay: Radioactive uptake and membrane/intracellular fractionation in cells overexpressing OATP1B1 or vector; type: cell-based; set-up: expressed in transfected cells; settings: 0.2 µM EβG or 1 µM venetoclax, 15 min
Method: For experiments seeking to directly determine if venetoclax is an OATP1B1 substrate, cells overexpressing OATP1B1 or VC were seeded in six-well plates in phenol red-free DMEM containing 10% FBS and doxycycline (1 µg/mL) for 24 h. […] Cells were then immediately lysed with 1 mL of 1 N NaOH for 4 h on an orbital shaker at room temperature to measure total radioactivity. Alternatively, cells were trypsinized with 200 µL of TrypLE (Thermo Fisher Scientific, Waltham, MA, USA) for 3–5 min, rinsed with 800 µL of ice-cold washing buffer, and ProteoExtract Native Membrane Protein Extraction Kits (EMD Millipore, Burlington, MA, USA) were used to separate membrane and intracellular fractions. Dissociated cells were then transferred to 1.5-mL Eppendorf tubes. For measurement of total radioactivity, cells were neutralized with 500 µL of 2 M HCl after 4 h. For measurement of total radioactivity in the membrane or intracellular fraction, cells were isolated following the manufacturer’s protocol, as we have reported previously; this procedure is based on a differential extraction procedure under non-denaturing conditions.

[5] = test system: OATP1B1; set-up: method as in PMID 27273149; settings: previous data, weak inhibition; cited from earlier work
[6] = cited from earlier work
[7] = biological target: T1, OATP1B1; assay: Competitive counterflow assay with 8-acetoxy-trisulfopyrene; type: cell-based; set-up: expressed in transfected cells; settings: 5 µM ACE; venetoclax 200 µM, cyclosporin A 10 µM, paraformaldehyde 0.5%; 20 min
Method: Competitive counterflow assays were performed with 8-acetoxy-trisulfopyrene, an activatable fluorogenic probe for OATP1B1, as described previously. In brief, cells expressing a vector or OATP1B1 were seeded in 96-well opaque plates in phenol-red free DMEM media with 10% FBS and induced with doxycycline for 24 h. On the day of the experiment, the media was removed, and the cells were washed three times with warm PBS. The cells were then incubated for 20 min at 37 °C with 100 µL of 5 µM 8-acetoxypyrene-1,3,6-trisulfonate uptake buffer (ACE; 125 mM NaCl, 4.8 mM KCl, 1.2 mM CaCl2, 1.2 mM KH2PO4, […], 25 mM 2-N-morpholino), ethanesulfonic acid, and 5.6 mM glucose, with the pH adjusted to 5.5). […] The fluorescence was measured at excitation and emission wavelengths of 460 nm and 510 nm, respectively, after 20 min of incubation to control for the number of cells.
The plates were incubated for 20 min at 37 °C. In the final step, the supernatant was removed, and the cells were washed three times with 200 µL ice-cold PBS to stop the reaction. PBS was then removed and 200 µL of 0.1 N NaOH was added to each well to normalize the pH. The fluorescence was measured as described above after another 20 min incubation at room temperature. The levels of cell dye were reported as a percent of the measurement from cells containing ACE alone.

[8] = OATP1B2 IC50, HEK293 cells, 0.2 µM EβG, 15 min pre-incubation + 15 min co-incubation

Compound	IC50 ([1]; OATP1B1 IC50, HEK293 cells) [µM]	IC50 [2, 8] [µM]	R value [3]	other results
CCCCCOc1ccc(-c2ccc(-c3ccc(C(=O)N[C@H]4C[C@@H](O)[C@@H](O)NC(=O)[C@@H]5[C@@H](O)[C@@H](C)CN5C(=O)[C@H]([C@@H](C)O)NC(=O)[C@H]([C@H](O)[C@@H](O)c5ccc(O)cc5)NC(=O)[C@@H]5C[C@@H](O)CN5C(=O)[C@H]([C@@H](C)O)NC4=O)cc3)cc2)cc1 [Anidulafungin] ({pTerphenylCO(4''-OnC5H11)}-[Orn(4R-OH,5R-OH)]T[Hyp][hTyr(3S-OH,4S-OH)]T[Pro(3S-OH,4S-Me)]; lactam 1-C)	42	–	–	–
CC[C@H](C)C[C@H](C)CCCCCCCCC(=O)N[C@H]1C[C@@H](O)[C@@H](NCCN)NC(=O)[C@@H]2[C@@H](O)CCN2C(=O)[C@H]([C@H](O)CCN)NC(=O)[C@H]([C@H](O)[C@@H](O)c2ccc(O)cc2)NC(=O)[C@@H]2C[C@@H](O)CN2C(=O)[C@H]([C@@H](C)O)NC1=O [Caspofungin]	9.2	> 100	–	–
CC(C)c1nc(CN(C)C(=O)N[C@@H](CCN2CCOCC2)C(=O)N[C@H](CC[C@H](Cc2ccccc2)NC(=O)OCc2cncs2)Cc2ccccc2)cs1 [Cobicistat]	0.31	0.7	> 1.1	–
C[C@]12CC[C@@H]3c4ccc(O)cc4CC[C@H]3[C@@H]1CC[C@@H]2O[C@@H]1O[C@H](C(=O)O)[C@@H](O)[C@H](O)[C@H]1O [EβG, Estradiol-17β-D-glucuronide]	–	–	–	Uptake in the intracellular fraction with overexpression of OATP1B1 versus vector [4]: significant increases
OC(Cn1cncn1)(Cn1cncn1)c1ccc(F)cc1F [Fluconazole]	4100	> 5000	–	–
CC(O)C(C)n1ncn(-c2ccc(N3CCN(c4ccc(OCC5COC(Cn6cncn6)(c6ccc(Cl)cc6Cl)O5)cc4)CC3)cc2)c1=O (stereo not shown) [Hydroxy-ITZ, hydroxy-itraconazole]	3.5	> 2	–	OATP1B1 inhibitory potency compared with parent drug itraconazole ([1]; HEK293 cells): more potent inhibitors of OATP1B1 than the parent drug
C[C@@H](c1nc(-c2ccc(C#N)cc2)cs1)[C@](O)(Cn1cncn1)c1cc(F)ccc1F [Isavuconazole]	2.5	2.5	> 1.1	IC50 [5]: > 10 µM
CCC(C)n1ncn(-c2ccc(N3CCN(c4ccc(OCC5COC(Cn6cncn6)(c6ccc(Cl)cc6Cl)O5)cc4)CC3)cc2)c1=O (stereo not shown) [Itraconazole]	37	> 50	–	–
CC(=O)C(C)n1ncn(-c2ccc(N3CCN(c4ccc(OC[C@H]5CO[C@](Cn6cncn6)(c6ccc(Cl)cc6Cl)O5)cc4)CC3)cc2)c1=O (stereo partly shown) [Keto-ITZ, keto-itraconazole]	–	–	–	OATP1B1 inhibitory potency compared with parent drug itraconazole ([1]; HEK293 cells): more potent inhibitors of OATP1B1 than the parent drug; IC50 ([1]; read-out: OATP1B1 IC50, HEK293 cells): 8.3 µM
CC(=O)N1CCN(c2ccc(OCC3COC(Cn4ccnc4)(c4ccc(Cl)cc4Cl)O3)cc2)CC1 (stereo not shown) [Ketoconazole]	1.5	2.2	–	Fraction Unbound (fup) [6]: 3.2%
CCCCCOc1ccc(-c2cc(-c3ccc(C(=O)N[C@H]4C[C@@H](O)[C@@H](O)NC(=O)[C@@H]5[C@@H](O)[C@@H](C)CN5C(=O)[C@H]([C@H](O)CC(N)=O)NC(=O)[C@H]([C@H](O)[C@@H](O)c5ccc(O)c(OS(=O)(=O)O)c5)NC(=O)[C@@H]5C[C@@H](O)CN5C(=O)[C@H]([C@@H](C)O)NC4=O)cc3)no2)cc1 [Micafungin] (X1-[Orn(4R-OH,5R-OH)]T[Hyp][hTyr(3S-OH,4S-OH,3'-OSO3H)][Gln(3R-OH)][Pro(3S-OH,4S-Me)]; lactam 1-C)	2.1	4.9	> 1.1	–
CC[C@@H]([C@H](C)O)n1ncn(-c2ccc(N3CCN(c4ccc(OC[C@@H]5CO[C@@](Cn6cncn6)(c6ccc(F)cc6F)C5)cc4)CC3)cc2)c1=O [Posaconazole]	1.9	> 80	> 1.1	IC50 ([2]; IC50 (Figure S7, Relative OATP1B2 Function), HEK293 cells expressing OATP1B2, EβG uptake, value printed in figure panel): > 100 µM; IC50 at 15 min ([2]; mouse, HEK293 cells stably expressing OATP1B2, probe [3H]EβG, 0.2 µM, OATP1B2 IC50, HEK293 cells, 0.2 µM EβG, 15 min pre-incubation + 15 min co-incubation): > 20 µM
CO[C@H]1/C=C/O[C@@]2(C)Oc3c(C)c(O)c4c(O)c(c(/C=N/N5CCN(C)CC5)c(O)c4c3C2=O)NC(=O)/C(C)=C\C=C\[C@H](C)[C@H](O)[C@@H](C)[C@@H](O)[C@@H](C)[C@H](OC(C)=O)[C@@H]1C [Rifampin]	< 3	2.1	> 1.1	–
C[C@@H](c1ncncc1F)[C@](O)(Cn1cncn1)c1ccc(F)cc1F [Voriconazole]	80	> 200	–	–
paraformaldehyde	–	–	–	Effect on fluorescence (cell dye level) in competitive counterflow [7]: did not decrease fluorescence
